Assay results from BindingDB's records for doi:10.1021/jm000496v (Welfide, 2001).

Molecular target: Chymotrypsinogen A (Bos taurus) (UniProt P00766)
Test: Inhibitory activity against alpha chymotrypsin from bovine pancreas.

Ki: 1630 nM
Structure (SMILES): Nc1cnc(-c2ccc(F)cc2)n(CC(=O)NC(Cc2ccccc2)C(=O)c2nc3cc(-c4ccccc4)ccc3o2)c1=O (stereo unspecified) [2-[5-Amino-2-(4-fluoro-phenyl)-6-oxo-6H-pyrimidin-1-yl]-N-[1-benzyl-2-oxo-2-(5-phenyl-benzooxazol-2-yl)-ethyl]-acetamide]
